In ChEMBL document CHEMBL3507680, “University of Dundee, Gates Library screen for HepG2 cell viability”:

Assay: Human HepG2 cell viability assay in 384 well format
Format: toxicity, cell-based
Design: dose 125 nL, time 70.5 hour; concentration not given beside the values
Details: HepG2 cells, read-out: Inhibition

| SMILES | cytotoxicity at 70.5 h |
| --- | --- |
| Cc1noc(C)c1C(=O)N1CC[C@H]2C[C@@H](c3nccs3)O[C@@H]2C1 | -13.5% |
| CC(C)c1nccc([C@H]2C[C@@H]3CCN(Cc4ccoc4)C[C@H]3O2)n1 | -4.74% |
| COC[C@@H]1CC[C@H]2[C@H](CCN2S(=O)(=O)c2ccc(F)cc2)O1 | -28.6% |
| CS(=O)(=O)N1CCC(c2nnc3ccc(C(=O)N4CCCC4)cn23)C1 (stereo not drawn) | -5.09% |
| CS(=O)(=O)N1CCC2(CC1)CC(CC(=O)N1CCCC1)c1ccccc12 (stereo not drawn) | -10.4% |
| Fc1cnc(N2CCOCC3(CCCN(c4nncs4)C3)C2)nc1 (stereo not drawn) | -19.9% |
| COCC(=O)N1CCC2(CC1)CC(CC(=O)NC1CC1)c1ccccc12 (stereo not drawn) | -18.5% |
| COC[C@@H]1CC[C@H]2[C@H](CCN2S(=O)(=O)c2ccc(OC)cc2)O1 | -6.4% |
| CCN(C)c1ncnc2c1CCN(Cc1ccoc1)CC2 | -20.5% |
| Cc1ccc(C(=O)N2C[C@@H](OCC3CCOCC3)[C@H]3OCCC[C@H]32)o1 | -27.2% |
| Cn1cc(-c2nnn3c2COC(CNCc2nccs2)C3)cn1 (stereo not drawn) | -25.2% |
| CN(C)c1nccc(-c2c[nH][nH]c2=O)n1 | -1.59% |
| CC(C)Nc1nc2c(s1)C(=O)CN(C)C2 | 4.07% |
| CNCC[C@H]1CC(C)(C)Oc2ccc(C)cc21 | -2.65% |
| CNCC[C@H]1CC(C)(C)Oc2ccc(OC)cc21 | -0.183% |
| CN(C)c1nccc(-c2cnc(N(C)C)[nH]c2=O)n1 | -5.37% |
| CC(=O)N1CCC(n2nccc2-c2cnc(N)nc2)CC1 | -6.3% |
| Nc1ncc(-c2ccc(NC(=O)[C@@H]3CCCCN3)cc2)cn1 | 2.01% |
| CC[C@H](C)Nc1nccc(-c2cnc3sccn3c2=O)n1 | -4.72% |
| CC(C)NC(=O)NCc1cc(-c2cccc(Cl)c2)nn1C | 7.95% |
| C[C@H](NS(C)(=O)=O)C(=O)NCc1cc(-c2ccco2)n[nH]1 | -12.9% |
| Cc1ncc(-c2ccnc(SCCN)n2)c(-c2ccco2)n1 | 21.8% |
| OC1(CNCCSc2ccccn2)CCCNC1 (stereo not drawn) | -6.54% |
| CCC(C(=O)NCC1=CCN(C)CC1)c1ccccc1 (stereo not drawn) | 30% |
| Cc1csc(CN2C[C@H](NC(=O)C3CCOCC3)[C@@H](C(C)C)C2)n1 | -10.9% |
| COc1cc(CN2CCC3(CC2)[C@H](O)C[C@@H]3OCCO)ccc1F | -8.63% |

| SMILES | cytotoxicity at 70.5 h |
| --- | --- |
| CC(c1ccccn1)N(C)Cc1ccc(-n2ccnc2)cc1 (stereo not drawn) | 1.45% |
| CNc1ncc(C(=O)N[C@H]2CN(CCCSC)C[C@@H]2C2CC2)cn1 | -5.85% |
| Cc1ccc(-c2cnnc(N3CCCC3c3nccs3)n2)o1 (stereo not drawn) | -7.57% |
| N[C@@H]1CC[C@@H](Nc2nccc(CCC(F)(F)F)n2)C1 | -6.78% |
| CC(C)c1nnsc1CNC(=O)C1CCN(C(C)C)CC1 | 1.46% |
| O=C(CN1C[C@H]2CC[C@@H]1CN(Cc1ccccn1)C2)Nc1ccccc1 | -6.28% |
| COc1ccccc1CCC(=O)N1CCCC(OCc2cccnc2)C1 (stereo not drawn) | 26.8% |
| NC(=O)c1cnc2n1CCN(C(=O)c1ccc(Cn3cccc3)cc1)C2 | 5.38% |
| CCc1cc(CN(C)C(=O)c2cnc3c(c2)nc(N)n3CC)on1 | -2.5% |
| CCn1cc(-c2n[nH]c(=O)n2-c2ccc3c(c2)OCO3)c(C)n1 | -4.59% |
| CN(C)CCN(C)C[C@@H]1CN(Cc2cccc(O)c2)C[C@@H]1CO | -3.65% |
| O=C1CC(NCc2ccc(Cl)s2)CN1Cc1cccc(F)c1 (stereo not drawn) | -7.49% |
| CCc1cc(NCCS(=O)(=O)N(C)C)nc(N2CCOCC2)n1 | -13.2% |
| CCC(OC)C(=O)NCC1CCN(c2cnn(C)c(=O)c2)CC1 (stereo not drawn) | -3.42% |
| OCC1(O)CCCN(Cc2noc(-c3ccccc3)n2)C1 (stereo not drawn) | -10.2% |
| CCOCCn1nc(C)cc1C(=O)N1CC[C@](O)(CC)[C@H](O)C1 | 3.37% |
| CCCC(C)NC1CCN(c2ccc(-n3ccnc3C)cc2)CC1 (stereo not drawn) | -2.41% |
| CCN1CCC(CNC(=O)C(c2ccc(F)cc2)N(C)C)(N(C)C)CC1 (stereo not drawn) | -6.97% |
| CCN(CC)CCC(=O)NCc1cc2n(n1)CCN(C(=O)N(C)C)C2 | -11.8% |
| CCC[C@H]1CN(C2CCOCC2)C[C@@H]1NC(=O)CCc1cnccn1 | 6.02% |
| CO[C@H]1CN(C(C)C)C[C@@H]1NC(=O)Nc1ccc2oc(C)cc2c1 | 26.1% |
| O=C(c1ccnc(CC2COc3ccccc3C2)c1)N1CCCC1 (stereo not drawn) | -23.5% |
| CCN1CCCC(CN2CCn3nc(CNC(=O)N(C)C)cc3C2)C1 (stereo not drawn) | -8.51% |
| CN1CC2(CCCN(C(=O)c3cnc4ccc(F)cc4c3O)C2)OC1=O (stereo not drawn) | -6.43% |
| Cc1nccn1-c1ccc(NC(=O)C2CCCN2CC2CC2)cc1 (stereo not drawn) | -1.14% |
| Cc1c(NC(=O)N(C)CCCc2cnn(C)c2)cnn1C | -12.2% |

| SMILES | cytotoxicity at 70.5 h |
| --- | --- |
| CN1CCCN(C[C@@H]2CN(c3nc(C(N)=O)cs3)C[C@@H]2CO)CC1 | 4.88% |
| Cc1cc(N2CCCN(c3nc(C)nc(C)c3C)CC2)ccn1 | -11% |
| CS(=O)(=O)N1CCC[C@H]1c1ncnn1-c1ccc2c(c1)OCO2 | -1.95% |
| CCCc1ccc(C(=O)N2CCc3c(nc(N(C)C)[nH]c3=O)C2)cc1 | -5.16% |
| Cn1ccnc1CN1CCC(Cn2cc(-c3ccccc3)nn2)CC1 | 3.07% |
| COc1nccnc1N1CCC2(CC1)[C@H](O)C[C@@H]2OCCN(C)C | -7.06% |
| CSc1nccc(N2CCCC(c3nccn3C(C)C)C2)n1 (stereo not drawn) | 17.1% |
| CSCC(=O)N[C@H]1CN(Cc2c(C)noc2C)C[C@@H]1C(C)C | -0.898% |
| CCc1cc(NC2CCS(=O)(=O)CC2)nc(N2CCCCC2)n1 | 22.5% |
| O=C(O)c1ccccc1C1CCN(C2Cc3ccccc3C2)C1 (stereo not drawn) | -1.24% |
| Cc1ccc2nc(-c3cnc(N)nc3)c(C)c(C(=O)N(C)C)c2c1 | 11.2% |
| NC(=O)N1CCCC(c2nc(-c3cccnn3)no2)C1 (stereo not drawn) | -5.18% |
| CC(C)(CO)Nc1cc(-c2cn[nH]c2)ncn1 | -2.91% |
| COCC(=O)N1CCC2(CC1)CCN(Cc1ccccn1)C2=O | -0.554% |
| c1cncc(N2CCOCC3(CCCN(c4nncs4)C3)C2)c1 (stereo not drawn) | -21.7% |
| CN(C)C(=O)[C@@H]1CCO[C@@H]2CCN(Cc3ccc4c(c3)OCO4)C[C@@H]21 | -21.3% |
| COCC1CN(Cc2ccsc2)Cc2nn(C)cc21 (stereo not drawn) | 16.3% |
| CN(C)C[C@H]1OC[C@@H]2CCN(S(=O)(=O)c3ccccc3)C[C@@H]21 | 22.9% |
| O=C(c1ncccn1)N1C[C@H]2CCC[C@@]2(COCc2cccnc2)C1 | 15.8% |
| CCO[C@@H]1CO[C@@]2(CCCN(S(=O)(=O)c3cccnc3)C2)C1 | -17.7% |
| CC(C)NC(=O)N1CCC2(C1)CN(c1ccsc1)C(=O)CN2C (stereo not drawn) | -9.03% |
| Cc1cccc(C(=O)N2C[C@@H](OCc3cccnc3)[C@H]3OCCC[C@@H]32)n1 | -1.75% |
| O=C1NC2(CCN(Cc3nccs3)CC2)CC1c1ccncc1 (stereo not drawn) | -0.916% |
| Cc1cccc(N2CC[C@@H]3CN(Cc4csc(C)n4)CCO[C@@H]3C2)n1 | 2.82% |
| CCN(C)c1ncnc2c1CCN(Cc1ccc(OC)cc1)CC2 | -2.63% |
| COCC1CC2(CCN(Cc3ccc(OC)cc3)CC2)CN1C(C)C (stereo not drawn) | -13.7% |
